Common to all, as to format: cell-based
Test [1] deals with C. albicans P-87. The test is described as follows: MIC80 broth double-dilution assay. The following applies: YPAD medium, 30° C., 24 h; for MIC80: Candida albicans, P87, read-out: MIC80 against C. albicans P-87. In a few lines:
(§1)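 Modified CLSI M27-A3 broth double-dilution in YPAD over 64 to 0.003 μg/mL; plates incubated 24 h at 30° C. MIC80 defined by OD600 reduction of >80% against no-drug wells.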

In test [2] the test system is C. parapsilosis ATCC 22019. Description: MIC80 broth double-dilution assay. The following applies: YPAD medium, 30° C., 24 h; for MIC80: Lodderomyces parapsilosis, ATCC22019, read-out: MIC80 against C. parapsilosis 22019. An outline of the steps: as §1
Test [3] relates to C. albicans SC5314. Description: MIC80 broth double-dilution assay. The following applies: YPAD medium, 30° C., 24 h; for MIC80: Candida albicans, SC5314, read-out: MIC80 against C. albicans SC5314. In a few lines:
as §1

The subject of test [4] is C. tropicalis 660. The test is described as follows: MIC80 broth double-dilution assay. The following applies: YPAD medium, 30° C., 24 h; for MIC80: Candida tropicalis, 660, read-out: MIC80 against C. tropicalis 660. In a few lines: as §1
The subject of test [5] is C. dubliniensis T-99. Description: MIC80 broth double-dilution assay. The following applies: YPAD medium, 30° C., 24 h; for MIC80: Candida dubliniensis, T99, read-out: MIC80 against C. dubliniensis T-99. An outline of the steps: as §1
In test [6] the test system is C. albicans SN152. The test is described as follows: MIC80 broth double-dilution assay. The following applies: for MIC80: Candida albicans, SN152, 24 h, read-out: MIC80 against C. albicans SN152; for MIC80 against C. albicans SN152: YPAD medium, 30° C., 24 h, parent strain of the erg11ΔΔ/erg3ΔΔ mutant. In a few lines:
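CLSI M27-A3-based broth microdilution in YPAD, cells diluted from 1×10^−3 OD600 suspension 1:100, hybrids double-diluted from 64 to 0.003 μg/mL. After 24 h at 30 °C, MIC80 is the OD600 reduction >80% versus no-drug wells; triplicate, two independent experiments.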

Test [7] deals with C. auris ATCC MYA5002. The test is described as follows: MIC broth double-dilution assay with MTT (CLSI M27-A3). The following applies: 37° C., 24 h; for MIC: Candidozyma auris, ATCCMYA5002, YPAD medium, growth score 0 or 1, read-out: MIC against C. auris 5002; for MIC against C. auris 5002: YPAD medium, growth score 0 or 1. The method, then:
(§2) Minimal inhibitory concentration broth double-dilution assay: C. auris minimal inhibitory concentrations (MICs) were determined using CLSI M27-A3 guidelines with minor modifications. Starter cultures were streaked from glycerol stock onto YPAD agar plates and grown for 24 h at 37° C. Colonies were suspended in 1 mL PBS and diluted to 1×10^−3 optical density at 600 nm (OD600) and then diluted 1:100 into fresh medium. hybrids dissolved in DMSO were added to YPAD broth (32 μL stock solution in 1218 μL of YPAD broth), and serial double dilutions of hybrids in YPAD were prepared in flat-bottomed 96-well microplates (Corning) to enable testing of concentrations ranging from 64 μg/mL to 0.007 μg/mL. Control wells with yeast cells but no drug and blank wells containing only YPAD were prepared. An equal volume (100 μL) of yeast suspension in YPAD broth was added to each well with the exceptions of the blank wells. After incubation for 24 h at 37° C., MTT (50 μL of a 1 mg/mL solution in ddH2O) was added to each well followed by additional incubation at 37° C. for 2 h. MIC values (Table S3) were defined as the lowest concentration of an antifungal agent that caused a specified reduction in visible growth as per the CLSI M27-A3 protocol. The magnitude of reduction in visible growth was assessed using the following numerical scale: 0, optically clear; 1, slightly hazy; 2, prominent decrease (˜50%) in visible growth; 3, slight reduction in visible growth; and 4, no reduction in visible growth. The MIC was defined based on reduction in growth to 0 or 1. Results were confirmed in two independent experiments, and each concentration was tested in triplicate. FLC and VOR were used as control drugs.

Test [8] deals with C. auris ATCC MYA5001. Described as above. The following applies: 37° C., 24 h; for MIC: Candidozyma auris, ATCCMYA5001, YPAD medium, growth score 0 or 1, read-out: MIC against C. auris 5001; for MIC against C. auris 5001: YPAD medium, growth score 0 or 1. The method, then:
as §2

Test [9] concerns C. albicans 742 (erg11ΔΔ/erg3ΔΔ mutant C. albicans strain). The test is described as follows: MIC80 broth double-dilution assay, strain lacking CYP51. The following applies: 24 h; for MIC80: Candida albicans, read-out: MIC80 against C. albicans 742; for MIC80 against C. albicans 742: YPAD medium, 30° C., erg11ΔΔ/erg3ΔΔ mutant lacking CYP51. An outline of the steps: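 Double-knockout C. albicans and parent SN152 grown in YPAD at 30 °C with serial double dilutions from 64 to 0.003 μg/mL; OD600 read after 24 h (growth followed over 48 h). MIC80 taken as >80% OD600 reduction versus no-drug wells; triplicate, two independent experiments.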

Test [10] has as its system panel of 16 representative strains of different species of the genus Candida. Description: Antifungal activity (MIC80) against a panel of Candida strains, comparison. The following applies: azole-susceptible strains. As to the method: The antifungal activities of the 24 azole-COX inhibitor hybrids were evaluated against a panel of 16 representative strains of different species of the genus Candida. Candida species cause both superficial and systemic infections. The panel included strains of C. albicans, C. glabrata, C. parapsilosis, C. tropicalis, C. guilliermondii, C. dubliniensis, and C. auris (Table S2). To evaluate antifungal activity, the minimal inhibitory concentration 80% (MIC80) values were determined, which were defined as the lowest drug concentrations with turbidity (measured at OD600) less than or equal to that of specific 1:5 dilutions of the growth control. As controls, FLC and VOR, were tested.
MIC80 values were determined using the broth microdilution method over a concentration range of 0.003-64 μg/mL. Orange circles represent C. albicans strains, yellow circles represent C. glabrata strains, and green circles represent C. parapsilosis, C. tropicalis, C. dubliniensis and C. auris. Cells were grown in YPAD medium at 30° C. (For C. auris strains 37° C.) 24 h. Each concentration was tested in triplicate, and results were confirmed in at least two independent experiments.
C. albicans, C. glabrata, C. parapsilosis, C. guilliermondii, C. tropicalis, and C. dubliniensis MICs were determined using CLSI M27-A3 guidelines with minor modifications. Starter cultures were streaked from glycerol stock onto YPAD agar plates and grown for 24 h at 30° C. Colonies were suspended in 1 mL PBS and diluted to 1×10^−3 OD600 and then diluted 1:100 into fresh medium. Hybrids dissolved in DMSO were added to YPAD broth (32 μL stock solution in 1218 μL of YPAD broth), and serial double dilutions of hybrids in YPAD were prepared in flat-bottomed 96-well microplates (Corning) to enable testing of concentrations ranging from 64 μg/mL to 0.003 μg/mL. Control wells with yeast cells but no drug and blank wells containing only YPAD were prepared. An equal volume (100 μL) of yeast suspensions in YPAD broth was added to each well with the exceptions of the blank wells. MIC values (Tables S4-S6) were determined after 24 h at 30° C. by measuring the OD600 using a plate reader (Infinite M200 PRO, Tecan). MIC values were defined as the point at which the OD600 was reduced by >80% compared to the no-drug wells. Each concentration was tested in triplicate, and results were confirmed by two independent sets of experiments. FLC and VOR were used as control drugs.

In brackets after ≈: the same amount, converted by molar mass. Entries after “also recorded” stand apart in the source; their conditions may differ.

As for `OC(Cn1cncn1)(Cn1cncn1)c1ccc(F)cc1F` [FLC, fluconazole], the MIC80 in test [1] came to 1 µg/mL (≈ 3.27 µM); in [2], 1 µg/mL (≈ 3.27 µM); in test [3] it was 0.5 µg/mL (≈ 1.63 µM); in test [4], 1 µg/mL (≈ 3.27 µM); in [5], 0.25 µg/mL (≈ 0.816 µM); in test [6] it was 0.5 µg/mL (≈ 1.63 µM). In addition, the MIC80 in test [9] was greater than 64 µg/mL. In addition, the figures for the MIC in test [7] and in test [8] were greater than 64 µg/mL and 8 µg/mL (≈ 26.1 µM), respectively. Also, the “MIC80 against C. albicans 742” value in [9] is “inactive”.
On to `CC(C)Cc1ccc([C@H](C)C(=O)NC[C@](O)(Cn2cncn2)c2ccc(F)cc2F)cc1` [Hybrid 1], for which the “MIC80 against C. albicans P-87” value in test [1] is 0.003 µg/mL (≈ 0.00678 µM). Besides, the “MIC80 against C. parapsilosis 22019” value in test [2] was found to be 0.007 µg/mL (≈ 0.0158 µM). Besides, the “MIC80 against C. albicans SC5314” value in test [3] is 0.003 µg/mL (≈ 0.00678 µM). Besides, in test [4], the “MIC80 against C. tropicalis 660” value stood at 0.03 µg/mL (≈ 0.0678 µM). For the same compound, in [5], the “MIC80 against C. dubliniensis T-99” value is 0.06 µg/mL (≈ 0.136 µM). For the same compound, the “MIC80 against C. albicans SN152” value in test [6] was 0.003 µg/mL (≈ 0.00678 µM). Also, in [10], the “Antifungal potency (MIC80) in comparison with FLC, VOR or the corresponding stereoisomer” value is “lowest MIC80 values against all of the azole-susceptible strains; also recorded: up to two orders of magnitude more potent than FLC and was as potent as VOR”. Further, the “MIC against C. auris 5002” value in [7] was 1 µg/mL (≈ 2.26 µM). For the same compound, in [8], the “MIC against C. auris 5001” value was 0.06 µg/mL (≈ 0.136 µM). In addition, the “MIC80 against C. albicans 742” value in [9] was 64 µg/mL (≈ 145 µM).
For the compound `C[C@H](C(=O)NC[C@](O)(Cn1cncn1)c1ccc(F)cc1F)c1ccc(-c2ccccc2)c(F)c1` [Hybrid 5], the “MIC80 against C. albicans P-87” value in [1] was 0.015 µg/mL (≈ 0.0312 µM). Also, in test [3], the “MIC80 against C. albicans SC5314” value is 0.007 µg/mL (≈ 0.0146 µM). The “MIC80 against C. tropicalis 660” value in test [4] was 0.06 µg/mL (≈ 0.125 µM). Also, the “MIC80 against C. dubliniensis T-99” value in test [5] was found to be 0.5 µg/mL (≈ 1.04 µM). Further, the “MIC80 against C. albicans SN152” value in [6] was determined as 0.007 µg/mL (≈ 0.0146 µM). Also, in test [10], the “Antifungal potency (MIC80) in comparison with FLC, VOR or the corresponding stereoisomer” value is “lowest MIC80 values against all of the azole-susceptible strains; also recorded: more potent than the corresponding R-configured ibuprofen hybrid 6”. In addition, the “MIC against C. auris 5002” value in test [7] came out at 4 µg/mL (≈ 8.32 µM). Also, the “MIC against C. auris 5001” value in test [8] was 0.06 µg/mL (≈ 0.125 µM). Besides, in test [9], the “MIC80 against C. albicans 742” value is 64 µg/mL (≈ 133 µM).
With `C[C@@H](c1ncncc1F)[C@](O)(Cn1cncn1)c1ccc(F)cc1F` [VOR, voriconazole, reference compound], the MIC80 in [1] was found to be 0.007 µg/mL (≈ 0.02 µM); in test [2] it was 0.015 µg/mL (≈ 0.0429 µM); in test [3] it was 0.007 µg/mL (≈ 0.02 µM); in test [4], 0.12 µg/mL (≈ 0.344 µM); in test [5] it was 0.03 µg/mL (≈ 0.0859 µM); in [6] it was 0.007 µg/mL (≈ 0.02 µM). The MIC80 in test [9] is greater than 64 µg/mL. Moreover, the figures for the MIC in test [7] and in test [8] were 1 µg/mL (≈ 2.86 µM) and 0.03 µg/mL (≈ 0.0859 µM), respectively. Moreover, in [9], the “MIC80 against C. albicans 742” value is “inactive”.

What is called MIC80 is the lowest concentration that inhibits either 80% of growth or 80% of the strains tested, depending on the study. As usually defined, the MIC is the lowest concentration that inhibits growth of the organism.

The record behind these values is patent US20250018048A1, “FLUCONAZOLE-COX INHIBITOR HYBRIDS: A DUAL-ACTING CLASS OF ANTIFUNGAL AZOLES” (Ramot at Tel-Aviv University Ltd., priority 2022, published 2025).
